Assays:
[1] = molecular target: T1, recombinant human CYP11B1 (Homo sapiens, UniProt P15538); assay: CYP11B1 enzyme assay, enzyme enriched microsomes from V79-4 cells, cortisol by LC-MS; assay type: biochemical; conditions: IC50 ranges; run at Km of 11-deoxycortisol; read-out: hCYP11B1 IC50
T1 construct: made in house; host or cells: V79-4 cells (enzyme enriched microsomal fraction of cell lysates)
T1 sequence (P15538 25-503): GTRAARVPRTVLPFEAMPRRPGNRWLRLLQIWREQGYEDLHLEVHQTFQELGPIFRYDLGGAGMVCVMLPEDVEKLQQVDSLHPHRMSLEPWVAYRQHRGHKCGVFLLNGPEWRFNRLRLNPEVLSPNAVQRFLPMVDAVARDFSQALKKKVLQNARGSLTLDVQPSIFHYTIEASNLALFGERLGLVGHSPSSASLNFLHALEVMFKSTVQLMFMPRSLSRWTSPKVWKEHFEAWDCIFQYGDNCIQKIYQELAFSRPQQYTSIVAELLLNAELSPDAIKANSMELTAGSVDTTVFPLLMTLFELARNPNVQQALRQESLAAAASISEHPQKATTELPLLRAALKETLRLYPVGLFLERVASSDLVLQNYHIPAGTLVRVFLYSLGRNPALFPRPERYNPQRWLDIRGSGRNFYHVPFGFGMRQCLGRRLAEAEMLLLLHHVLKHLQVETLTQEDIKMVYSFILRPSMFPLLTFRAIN
Procedure: (§1) An enzyme enriched microsomal fraction was prepared from cellular lysates and subsequently used as the enzyme source for determining inhibitor IC50s. […] Enzyme assays for inhibitor screening employed CYP11B2 and CYP11B1 enzyme enriched microsomes and were run at the Km of the respective substrates. Products of the enzyme reactions, aldosterone for CYP11B2 or cortisol for CYP11B1, were measured by LC-MS. Assays were run under conditions of less than 20% substrate turnover. Inhibitor IC50s were generated by determining the product formation in the absence or presence of inhibitor at various concentrations. In the absence of the test compound, the product formed (Pt) in each data set was defined as 100% activity. In the absence of enzyme, the product formed (Pb) in each data set was defined as 0% activity. The percent activity in the presence of each inhibitor was calculated according to the following equation: % activity=(P−Pb)/(Pt−Pb), where P=the product formed in the presence of the inhibitor.

[2] = molecular target: T2, recombinant human CYP11B2 (Homo sapiens, UniProt P19099); assay: CYP11B2 enzyme assay, enzyme enriched microsomes from V79-4 cells, aldosterone by LC-MS; assay type: biochemical; conditions: IC50 ranges; run at Km of 11-deoxycorticosterone; read-out: hCYP11B2 IC50
T2 construct: made in house; host or cells: V79-4 cells (enzyme enriched microsomal fraction of cell lysates)
T2 sequence (P19099 25-503): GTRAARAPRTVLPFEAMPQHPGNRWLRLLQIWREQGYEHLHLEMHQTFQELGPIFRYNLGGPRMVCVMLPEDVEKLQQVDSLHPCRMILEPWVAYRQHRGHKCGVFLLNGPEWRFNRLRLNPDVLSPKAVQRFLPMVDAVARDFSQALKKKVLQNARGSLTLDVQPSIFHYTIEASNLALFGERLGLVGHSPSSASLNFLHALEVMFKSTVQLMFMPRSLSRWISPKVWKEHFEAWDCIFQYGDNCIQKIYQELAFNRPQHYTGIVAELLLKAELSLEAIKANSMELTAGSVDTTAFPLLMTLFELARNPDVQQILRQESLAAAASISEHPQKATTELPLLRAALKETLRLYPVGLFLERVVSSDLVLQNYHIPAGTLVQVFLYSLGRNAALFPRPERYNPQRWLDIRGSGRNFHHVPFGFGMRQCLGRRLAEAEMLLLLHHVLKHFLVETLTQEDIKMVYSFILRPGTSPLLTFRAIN
Procedure: as §1

## Cc1ncc(-c2nc3ccc(F)cc3n2C2CC2)cn1 [Example 20, 1-Cyclopropyl-6-fluoro-2-(2-methylpyrimidin-5-yl)-1H-benzo[d]imidazole]
[1]
  IC50: > 10000 nM
[2]
  IC50: 1000 to 10000 nM

## Cc1ncncc1-c1nc2ccc(C#N)cc2n1C1CC1 [Example 21, 1-Cyclopropyl-2-(4-methylpyrimidin-5-yl)-1H-benzo[d]imidazole-6-carbonitrile]
[1]
  IC50: 1000 to 10000 nM
[2]
  IC50: 1 to 100 nM

## CC(C)c1ncncc1-c1nc2cc(F)c(F)cc2n1C1CC1 [Example 22, 1-Cyclopropyl-5,6-difluoro-2-(4-isopropylpyrimidin-5-yl)-1H-benzo[d]imidazole]
[1]
  IC50: 100 to 1000 nM
[2]
  IC50: 1 to 100 nM

## Clc1ccc2nc(-c3cncnc3)n(C3CC3)c2c1 [Example 23, 6-Chloro-1-cyclopropyl-2-(pyrimidin-5-yl)-1H-benzo[d]imidazole]
[1]
  IC50: 1000 to 10000 nM
[2]
  IC50: 1 to 100 nM

## CC(C)c1ncncc1-c1nc2ccc(Cl)cc2n1C1CC1 [Example 24, 6-Chloro-1-cyclopropyl-2-(4-isopropylpyrimidin-5-yl)-1H-benzo[d]imidazole]
[1]
  IC50: 1000 to 10000 nM
[2]
  IC50: 1 to 100 nM

## COc1ccc2nc(-c3cncnc3)n(C3CC3)c2c1 [Example 25, 1-Cyclopropyl-6-methoxy-2-(pyrimidin-5-yl)-1H-benzo[d]imidazole]
[1]
  IC50: > 10000 nM
[2]
  IC50: 100 to 1000 nM

## CS(=O)(=O)c1ccc2nc(-c3cncnc3)n(C3CC3)c2c1 [Example 26, 1-Cyclopropyl-6-(methylsulfonyl)-2-(pyrimidin-5-yl)-1H-benzo[d]imidazole]
[1]
  IC50: > 10000 nM
[2]
  IC50: 1000 to 10000 nM

## CC(C)c1ncncc1-c1nc2ccc(C#N)cc2n1C1CC1 [Example 28, 1-Cyclopropyl-2-(4-isopropylpyrimidin-5-yl)-1H-benzo[d]imidazole-6-carbonitrile]
[1]
  IC50: 1000 to 10000 nM
[2]
  IC50: 1 to 100 nM

## Cc1ncnc(C)c1-c1nc2ccc(F)cc2n1C1CC1 [Example 29, 1-Cyclopropyl-2-(4,6-dimethylpyrimidin-5-yl)-6-fluoro-1H-benzo[d]imidazole]
[1]
  IC50: > 10000 nM
[2]
  IC50: > 10000 nM

## CNc1ncncc1-c1nc2cc(F)c(F)cc2n1C1CC1 [Example 31, 5-(1-Cyclopropyl-5,6-difluoro-1H-benzo[d]imidazol-2-yl)-N-methylpyrimidin-4-amine]
[1]
  IC50: 100 to 1000 nM
[2]
  IC50: 1 to 100 nM

## CN(C)c1ncncc1-c1nc2cc(F)c(F)cc2n1C1CC1 [Example 32, 5-(1-Cyclopropyl-5,6-difluoro-1H-benzo[d]imidazol-2-yl)-N,N-dimethylpyrimidin-4-amine]
[1]
  IC50: 1000 to 10000 nM
[2]
  IC50: 1 to 100 nM

## COCCNc1ncncc1-c1nc2cc(F)c(F)cc2n1C1CC1 [Example 33, 5-(1-Cyclopropyl-5,6-difluoro-1H-benzo[d]imidazol-2-yl)-N-(2-methoxyethyl)pyrimidin-4-amine]
[1]
  IC50: 1000 to 10000 nM
[2]
  IC50: 1 to 100 nM

## CC(C)(C)Nc1ncncc1-c1nc2cc(F)c(F)cc2n1C1CC1 [Example 34, N-(tert-Butyl)-5-(1-cyclopropyl-5,6-difluoro-1H-benz[d]imidazol-2-yl)pyrimidin-4-amine]
[1]
  IC50: 100 to 1000 nM
[2]
  IC50: 1 to 100 nM

## Fc1ccc2nc(-c3cnc(Cl)nc3Cl)n(C3CC3)c2c1 [Example 35, 1-Cyclopropyl-2-(2,4-dichloropyrimidin-5-yl)-6-fluoro-1H-benzo[d]imidazole]
[1]
  IC50: > 10000 nM
[2]
  IC50: 1000 to 10000 nM

## Fc1cc2nc(-c3cncnc3NCC(F)(F)F)n(C3CC3)c2cc1F [Example 36, 5-(1-Cyclopropyl-5,6-difluoro-1H-benzo[d]imidazol-2-yl)-N-(2,2,2-trifluoroethyl)pyrimidin-4-amine]
[1]
  IC50: 100 to 1000 nM
[2]
  IC50: 1 to 100 nM

## Fc1cc2nc(-c3cncnc3NCCC(F)(F)F)n(C3CC3)c2cc1F [Example 37, 5-(1-Cyclopropyl-5,6-difluoro-1H-benzo[d]imidazol-2-yl)-N-(3,3,3-trifluoropropyl)pyrimidin-4-amine]
[1]
  IC50: 100 to 1000 nM
[2]
  IC50: 1 to 100 nM

— patent publication US11919883B2, “Metalloenzyme inhibitor compounds” (Ji Xing Pharmaceuticals Hong Kong Limited, priority 2016, dated 2024)
